One assay deals with T1, human URAT1 (Homo sapiens, UniProt Q96S37).
T1 construct: Full-length cDNA of human URAT1 (hURAT1)
T1 sequence (Q96S37 1-553): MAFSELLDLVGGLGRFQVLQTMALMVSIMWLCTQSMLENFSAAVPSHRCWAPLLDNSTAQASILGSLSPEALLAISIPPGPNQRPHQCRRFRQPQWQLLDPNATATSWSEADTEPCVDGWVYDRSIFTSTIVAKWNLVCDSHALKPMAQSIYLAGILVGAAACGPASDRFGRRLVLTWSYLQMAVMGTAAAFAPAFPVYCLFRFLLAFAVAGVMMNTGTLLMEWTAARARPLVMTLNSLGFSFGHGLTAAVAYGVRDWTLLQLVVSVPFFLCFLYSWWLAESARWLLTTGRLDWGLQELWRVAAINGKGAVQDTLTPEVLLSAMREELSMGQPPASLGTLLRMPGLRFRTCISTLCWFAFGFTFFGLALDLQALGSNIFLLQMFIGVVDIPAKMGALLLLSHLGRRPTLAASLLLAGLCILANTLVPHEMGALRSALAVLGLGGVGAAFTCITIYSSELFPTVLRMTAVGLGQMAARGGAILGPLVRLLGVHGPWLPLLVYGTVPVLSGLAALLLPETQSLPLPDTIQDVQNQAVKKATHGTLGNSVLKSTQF
Briefly: Test for inhibition of uric acid transport using human URAT1-expressing cells.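 Note: three stars up to 0.2 µM two stars 0.2-2 µM one star 2-20 µM.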 It counts as cell-based. The following applies: HEK 293 cells expressing human URAT1; 14C-labeled uric acid 25 μM; uptake 37° C. for 5 min. In short, it runs like this:
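IC50 values reflect inhibition of ¹⁴C-uric acid uptake (25 μM final, 5 min, 37 °C) by compound. Cells were HEK293 stably expressing full-length human URAT1, preincubated in Na-gluconate-substituted HBSS. Radioactivity in lysates was expressed relative to DMSO control as 100%.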

The test system of the next assay is Cebus apella. The assay is described as follows: Test for drug efficacy in Cebus apella (uric acid excretion rate). The following applies: 3 mg/kg to 30 mg/kg in 0.5% methylcellulose into stomach via the nasal cavity, up to 24 hours. It counts as in vivo. On the procedure:
A test compound (3 mg/kg to 30 mg/kg) prepared by suspending in a 0.5% methylcellulose solution was administered to Cebus apella into stomach via the nasal cavity using a disposable catheter and a syringe barrel. Blood samples were taken before administration and 30 minutes, 1 hour, 2 hours, 4 hours, 8 hours, 12 hours, and 24 hours after administration; and urine samples were collected for the time intervals of immediately to 4 hours after administration, from 4 hours to 8 hours after administration, from 8 hours to 16 hours after administration, and from 16 hours to 24 hours after administration. Concentrations of uric acid and creatinine in the blood and urine samples collected were measured by an automatic analyzer (JEOL Ltd.). Uric acid and creatine were measured using L-type Wako UA.F (Wako Pure Chemicals Industries, Ltd.) and L-type Creatine F (Wako Pure Chemicals Industries, Ltd.) respectively. Uric acid clearance was calculated from the uric acid concentrations in blood and urine and, similarly, creatinine clearance was calculated from the creatinine concentrations.

Molecules are shown by their SMILES.

With `O=C(O)c1cnc(-c2cncc(Cl)c2)n1Cc1cc(Cl)ccc1Cl` [Compound A169, 2-(5-chloropyridin-3-yl)-1-(2,5-dichlorobenzyl)-1H-imidazole-5-carboxylic acid], at human URAT1, the “Inhibitory Activity (IC50 of uric acid transport inhibition)” value (“Inhibitory Activity” for short) is recorded as “* * *”. Moreover, the “uricosuric effect (uric acid excretion rate)” value (“uricosuric effect” below) in the assay with Cebus apella is listed as “excellent uricosuric effect was confirmed”.

Consider `O=C(O)c1c(C2CC2)nc(-c2cncc(Cl)c2)n1Cc1cc(Cl)ccc1Cl` [Compound A147, 2-(5-chloropyridin-3-yl)-4-cyclopropyl-1-(2,5-dichlorobenzyl)-1H-imidazole-5-carboxylic acid], for which the “Inhibitory Activity” value on human URAT1 is listed as “* * *”. The “uricosuric effect” value in the assay with Cebus apella is given as “excellent uricosuric effect was confirmed”.

Consider `O=C(O)c1ccc(-c2cccnc2)n1Cc1cccc2ccccc12` [Compound B1, 1-(naphthalen-1-ylmethyl)-2-(pyridin-3-yl)-1H-pyrrole-5-carboxylic acid], for which the “Inhibitory Activity” value on human URAT1 is given as “* * *”. Besides, in the assay on Cebus apella, the “uricosuric effect” value is given as “excellent uricosuric effect was confirmed”.

With `O=C(O)c1c(C(F)(F)F)nc(-c2cccnc2)n1Cc1cc(Cl)ccc1Cl` [Compound A19, 1-(2,5-dichlorobenzyl)-2-(pyridin-3-yl)-4-(trifluoromethyl)-1H-imidazole-5-carboxylic acid], the “Inhibitory Activity” value on human URAT1 is “* * *”. Moreover, in the assay with Cebus apella, the “uricosuric effect” value is reported as “excellent uricosuric effect was confirmed”.

The values above are taken from US9637469B2, “Pyridine derivative” (Teijin Pharma Limited, priority 2012, dated 2017).
